Source: patent US11944604B1, “Nanoformulation of spriooxindole and methods for treating hepatocellular carcinoma” (KING SAUD UNIVERSITY, priority 2023, dated 2024)
Read-outs that look alike come from different tables or passages of the source.

Key:
caspase 3 = assay: Immunohistochemistry of caspase 3 in liver sections of CCl4-treated mice; type: in vivo; details: low dose daily for 14 days or high dose for 48 hours
Protocol: (§1) Twenty five mice were treated with carbon tetrachloride (CCl4, from LOBA Chemie Pvt Ltd, Mumbai, India, 1:5 in corn oil) twice weekly via IP injection for 24 weeks. After that period of time, mice were distributed evenly into 5 groups of 5 mice. Group 1 was treated with the solvent 10% DMSO; group 2 was treated with a low dose of compound 4d (50 mg/kg/daily) for 14 days; group 3 was treated with a high dose of compound 4d (200 mg/kg) for 6 hours; group 4 was treated with a high dose of compound 4d (200 mg/kg) for 24 hours; and group 5 was treated with a high dose of compound 4d (200 mg/kg) for 48 hours.
(§2) The sections were de-paraffinized in xylene, then rehydrated. Endogenous tissue peroxidase was blocked by incubating the slides for 5 minutes in 0.3% hydrogen peroxide. Antigen retrieval was done by heating the sections in citrate buffer, at pH 6.0, in a microwave. Then, the sections were incubated with monoclonal mouse p53 (clone DO-7, Dako, USA), rabbit polyclonal caspase 3 antibody (CPP32) Ab-4 (ThermoScientific), or with monoclonal mouse Ki-67 antigen (clone MIB-1, Dako, USA).
(§3) The slides were counterstained with hematoxylin and then dehydrated in alcohol and cleared xylene. The immunohistochemical and pathological changes were examined by light microscopy (binocular, Olympus). Images were taken using a digital camera (Canon, 5 mega pixels, at 3.2× optical zoom). […]

colon cancer cells = details: cited from earlier work
Male Balb/c mice = assay: Safety / tolerated dose study of compound 4d in healthy mice (blood count, blood chemistry, histopathology); type: in vivo; details: for Creatinine / GOT / GPT / Hb / Leukocytes / Platelets: mean ± SD
Protocol: (§4) An in vivo study was carried out in Male Balb/c mice, each weighing 15-25 g. All mice were purchased from Medical Experimental Research Center (MERC), Mansoura University, Egypt. Mice were acclimatized for one week in the new animal care facility, at the Zoology Department, Mansoura University, Egypt, under specific pathogen-free (SPF) conditions, and provided with conventional food and drinking water before the study. All animal experiments were carried out following the guidelines of the faculty of Science, Mansoura University, Egypt.
The lethal dose of compound 4d was evaluated according to standard Dose-Probing Tests. Mice were divided into groups of three for evaluating the LD50. Each group received either a different concentration of compound 4d (ranging from 10 ng/Kg to 200 mg/Kg), in corn oil, or the solvent 10% DMSO in corn oil, by intraperitoneal (IP) injection.
The weight and physical symptoms of the mice were monitored for 14 days. After that, all groups were sacrificed, and the liver, kidney, heart, and spleen were collected for histological evaluation of the toxicity of compound 4d. Blood was collected from each mouse for evaluation of the effect of compound 4d on liver and kidney function.
(§5) The blood was centrifuged to collect serum or plasma for biochemical analysis. The blood chemistry was evaluated to detect the level of serum alanine aminotransferase (ALT), serum aspartate aminotransferase (liver function test), and serum creatinine (kidney function test). Complete blood count analysis was carried out to detect the effect of compound 4d treatment on blood platelet count, because it has been reported that p53-MDM2 inhibitors cause high grade thrombocytopenia (i.e., decreased numbers of platelets).
(§6) The formalin-fixed liver specimens were embedded in paraffin, and sections were taken and prepared for hematoxylin and Eosin (H&E) staining. The slides were examined for hepatic architecture, degenerative changes, inflammatory changes, hepatocytes necrosis, mitosis, dysplastic changes and malignant transformation. 4 μm thick sections were prepared on coated slides.
In order to evaluate the tolerated dose of compound 4d, mice were intraperitoneally injected with different doses, and physical symptoms were evaluated daily for 14 days. The maximum dose used was 200 mg/kg, because of the solubility limitation in DMSO. DMSO was adjusted to the tolerated dose 10% in corn oil.

HepG2 = assay: Anticancer potency and ligand efficiency scores, HepG2; type: cell-based; details: Homo sapiens
From the text: (§7) LE is used to measure the efficiency of compounds and determine binding affinity (in terms of binding energy or pIC50) in relation to the number of heavy atoms in a molecule. This provides a way to compare the affinity of molecules corrected for their size.
(§8) LE represents the ratio of the affinity of a ligand divided by the number of heavy (non-hydrogen) atoms in the molecule (LE=ΔG/[number of heavy atoms. LE can be calculated according to the following equation: LE=(plC50×1.37)/NHA • where: • IC50=half-maximal inhibitory concentration (in term of molar concentration). • NHA=non-hydrogen atom. The recommended LE value for lead-likeness should be in the range of 0.3. The acceptable LE value for drug-likeness should be higher than 0.3.
(§9) LLE can be calculated as follows: LLE=pIC50−C log P

p53 = assay: Immunohistochemistry of p53 in liver sections of CCl4-treated mice; type: in vivo
Protocol: as §1, §2, §3

HCT-116 = assay: Anticancer potency and ligand efficiency scores, HCT-116; type: cell-based; details: Homo sapiens
From the text: as §7, §8, §9

[1] = Lipophilicity (log K as surrogate for log P); type: physicochemical
Protocol: An LLE value≥3 for a lead compound is acceptable, and for a drug candidate LLE value ≥5 is recommended. To get more accurate results, log P was calculated practically, and Log K was measured as indicator and surrogate for log p.

PC-3 = assay: Anticancer potency and ligand efficiency scores, PC-3; type: cell-based; details: Homo sapiens
From the text: as §7, §8, §9

Ki-67 = assay: Immunohistochemistry of Ki-67 in hepatocytes of CCl4-treated mice; type: in vivo; details: low (daily dose for 14 days) or high dose (single dose)
Protocol: as §1
The sections were de-paraffinized in xylene, then rehydrated. Endogenous tissue peroxidase was blocked by incubating the slides for 5 minutes in 0.3% hydrogen peroxide. Antigen retrieval was done by heating the sections in citrate buffer, at pH 6.0, in a microwave. […]
The statistical analysis was done using the software SPSS 19 for Microsoft Windows (SPSS Inc, Chicago, Illinois). A quantitative analysis of the number of hepatocytes with positive nuclear Ki-67 staining were tested using a one-way analysis of variance (ANOVA), with Duncan's multiple comparisons of the means to compare difference between means.
The level of proliferative Ki-67 marker was evaluated using immunohistochemistry. […]

[2] = test system: CCl4-induced liver cancer; assay: CCl4-induced liver cancer model: serum liver/kidney markers and H&E histopathology; type: in vivo, mice; design: GPT (ALT) / Creatinine / GOT (AST): unit not given here; details: for Creatinine / GOT (AST) / GPT (ALT): serum, mean ± SD; for mitotic activity of liver cells (H&E): CCl4-treated mice
Protocol: as §4, §1
At the end of each treatment, all mice were sacrificed, and blood and liver were collected for evaluation. The liver samples were washed in ice cold 1× phosphate buffered saline (PBS), and fixed in 10% buffered formalin till examination.
as §5, §6
An in vivo model was carried out to test the efficacy of compound 4d in treatment of liver cancer by applying two regimens of compound 4d: a single dose of 200 mg/kg and the treated mice were sacrificed after 6, 24 or 48 hours; or a daily dose of 50 mg/kg for 14 days. Liver cancer was induced chemically by CCl4 (1:5 dilution in corn oil, twice per week). […] The liver architecture was disturbed and there were cirrhotic nodules with bridging fibrosis (FIG. 3A).

[3] = test system: colon, liver and prostate cancer; details: anticancer activity against colon; cited from earlier work
[4] = healthy mice, IP, 50 mg/kg/14 d
[5] = healthy mice, IP, 200 mg/kg/24 hrs
[6] = healthy mice, IP, 200 mg/kg/48 hrs

For `O=C(/C=C/c1ccc(Cl)cc1Cl)[C@H]1[C@H](c2ccc(Cl)cc2Cl)[C@H]2CSCN2[C@]12C(=O)Nc1ccccc12` [Compound 4d, (3R,6′S,7′R,7a′S)-7′-(2,4-dichlorophenyl)-6′-((E)-3-(2,4-dichlorophenyl)acryloyl)-1′,6′,7′,7a′-tetrahydro-3′H-spiro[indoline-3,5′-pyrrolo[1,2-c]thiazol]-2-one], the “level of caspase 3 in liver sections” value (caspase 3) is listed as “induced the activation of caspase 3”, the “apoptosis (Bcl-2 inhibition, Bax activation)” value (colon cancer cells) is listed as “induction of apoptosis” and the “colony formation and wound healing” value (colon cancer cells; treated colon cancer cells) is listed as “inhibited colony formation, and wound healing”. The p21 gene expression (colon cancer cells; treated colon cancer cells) was “overexpression of cell cycle inhibitor p21 gene”, the p53 activation (colon cancer cells; treated colon cancer cells) was “activation of p53” and the “change in the behavior, feeding or drinking of the mice” value (Male Balb/c mice; IP, doses up to 200 mg/kg, observed daily for 14 days) was “did not cause any change”. The Creatinine (Male Balb/c mice; [4]) was 0.49 ± 0.21, the GOT (Male Balb/c mice; [4]) was 281.0 ± 231.9 and the GPT (Male Balb/c mice; [4]) was 486.6 ± 339.9. For the same compound, the Hb (Male Balb/c mice; [4]) was 10.16 ± 1.1, the Leukocytes (Male Balb/c mice; [4]) was 12.5 ± 6.9 and the Platelets (Male Balb/c mice; [4]) was 433.0 ± 304.6. The Creatinine (Male Balb/c mice; [5]) was 0.67 ± 0.24, the GOT (Male Balb/c mice; [5]) was 129.6 ± 56.5 and the GPT (Male Balb/c mice; [5]) was 498.0 ± 228.8. For the same compound, the Hb (Male Balb/c mice; [5]) was 10.1 ± 1.43, the Leukocytes (Male Balb/c mice; [5]) was 10.6 ± 6.9 and the Platelets (Male Balb/c mice; [5]) was 519 ± 302.9. It also gave a Creatinine (Male Balb/c mice; [6]) of 0.692 ± 0.567, a GOT (Male Balb/c mice; [6]) of 145.7 ± 198.9 and a GPT (Male Balb/c mice; [6]) of 368.0 ± 208.1. For the same compound, the Hb (Male Balb/c mice; [6]) was 10.4 ± 1.78, the Leukocytes (Male Balb/c mice; [6]) was 13.6 ± 6.4 and the Platelets (Male Balb/c mice; [6]) was 407.0 ± 281.6. For the same compound, the “pathological alteration in kidney, heart or spleen” value (Male Balb/c mice; healthy mice, histopathology) was “did not cause any pathological alteration”, the “platelet count (complete blood count)” value (Male Balb/c mice; healthy mice, in words) was “no aberrant or significant change” and the “liver architecture, hematoxylin and eosin staining” value (Male Balb/c mice; healthy mice, treatment for 14 days) was “normal liver architecture without any degenerative changes”. The IC50 (HepG2; read-out: HepG2 (unnamed value under the cell line head)) was 850 nM, the IC50 (HepG2; read-out: IC50 (converted)) was 851 nM and the “level of p53 in liver sections” value (p53; daily dose of 50 mg/kg for 14 days, versus mice only treated with CCl4) was “higher levels of detected p53”. For the same compound, the “activation of p53 in liver sections” value (p53; single dose of 200 mg/kg for 6, 24 or 48 hours) was “time-dependent activation of p53”, the IC50 (HCT-116; read-out: HCT-116 (unnamed value under the cell line head)) was 2000 nM and the IC50 (HCT-116; read-out: pIC50 (converted)) was 2040 nM. For the same compound, the “log K” value [1] was 1.19, the IC50 (PC-3; read-out: PC-3 (unnamed value under the cell line head)) was 1800 nM and the IC50 (PC-3; read-out: pIC50 (converted)) was 1820 nM. The “number of Ki-67 nuclear stained hepatocytes” value (Ki-67) was “significantly increased”, the Creatinine ([2]; CCl4 + 50 mg/kg/14 d) was 0.4120 ± 0.2 and the “GOT (AST)” value ([2]; CCl4 + 50 mg/kg/14 d) was 449.20 ± 109.2. For the same compound, the “GPT (ALT)” value ([2]; CCl4 + 50 mg/kg/14 d) was 2028.6 ± 168, the Creatinine ([2]; CCl4 + 200 mg/kg/6 hrs) was 0.4560 ± 0.1823 and the “GOT (AST)” value ([2]; CCl4 + 200 mg/kg/6 hrs) was 3419.00 ± 130.5. The “GPT (ALT)” value ([2]; CCl4 + 200 mg/kg/6 hrs) was 3430.4 ± 137.48, the Creatinine ([2]; CCl4 + 200 mg/kg/24 hrs) was 0.4860 ± 0.17 and the “GOT (AST)” value ([2]; CCl4 + 200 mg/kg/24 hrs) was 1161.00 ± 108.5. For the same compound, the “GPT (ALT)” value ([2]; CCl4 + 200 mg/kg/24 hrs) was 2209.0 ± 132.8, the Creatinine ([2]; CCl4 + 200 mg/kg/48 hrs) was 0.4660 ± 0.16 and the “GOT (AST)” value ([2]; CCl4 + 200 mg/kg/48 hrs) was 208.40 ± 9.32. For the same compound, the “GPT (ALT)” value ([2]; CCl4 + 200 mg/kg/48 hrs) was 961.6 ± 15.96, the “mitotic activity of liver cells (H&E)” value ([2]; daily dose of 50 mg/kg for 14 days) was “no mitotic activity” and the “mitotic activity of liver cells (H&E)” value ([2]; single dose of 200 mg/kg, after 6 hours) was 1 /10 H.P.F. For the same compound, the “mitotic activity of liver cells (H&E)” value ([2]; single dose of 200 mg/kg, longer incubation (24 hours)) was 1 /10 H.P.F, the “mitotic activity of liver cells (H&E)” value ([2]; single dose of 200 mg/kg, two days (48 hours)) was 2 /10 H.P.F and the selectivity index [3] was “greater than 2”.
